Measurements as given in BigSolDB 2.1.

COc1ccc(CN2CCNCC2)c(OC)c1OC.Cl.Cl
solubility (mole fraction)
Details	278.15 K	283.15 K	288.15 K	293.15 K	298.15 K	303.15 K	308.15 K	313.15 K	318.15 K	323.15 K
in 1,4-dioxane	–	–	5.08e-05	6.07e-05	7.16e-05	8.25e-05	9.48e-05	0.000109	0.000124	0.000141
in 2-butanone	6.02e-06	6.56e-06	7.1e-06	7.72e-06	8.35e-06	9.05e-06	9.85e-06	1.06e-05	1.15e-05	1.24e-05
in DMF	0.00053	0.000566	0.000609	0.000658	0.000705	0.000754	0.000803	0.000857	0.000913	0.000975
in acetone	6.23e-06	6.82e-06	7.47e-06	8.16e-06	8.85e-06	9.62e-06	1.03e-05	1.11e-05	1.2e-05	1.3e-05
in acetonitrile	1.23e-05	1.37e-05	1.49e-05	1.63e-05	1.77e-05	1.9e-05	2.04e-05	2.19e-05	2.38e-05	2.58e-05
in ethanol	0.000583	0.000652	0.000727	0.000805	0.00089	0.000987	0.00109	0.0012	0.00132	0.00145
in ethyl acetate	0.00201	0.00209	0.00217	0.00226	0.00234	0.00244	0.00254	0.00264	0.00275	0.00286
in isopropanol	7.61e-05	9.15e-05	0.00011	0.000133	0.000157	0.000184	0.000215	0.000247	0.000287	0.000333
in methanol	0.00353	0.00402	0.00458	0.00524	0.00603	0.00682	0.00777	0.00882	0.00993	0.0111
in n-butanol	0.000131	0.000153	0.000177	0.000201	0.000232	0.000263	0.000297	0.000336	0.000383	0.000432
in n-propanol	0.000193	0.000217	0.000246	0.000281	0.000322	0.000366	0.000413	0.000464	0.000521	0.000581
in toluene	7.02e-07	8.19e-07	9.58e-07	1.12e-06	1.33e-06	1.57e-06	1.83e-06	2.12e-06	2.43e-06	2.76e-06
